Results taken from US9617267B2, “Compounds and methods for kinase modulation, and indications therefor” (Plexxikon Inc., priority 2009, dated 2017).

Legend:
CYP1A2 = CYP1A2 (Homo sapiens (Human), UniProt P05177); experiment: CYP enzyme inhibition, fluorescent substrate (CEC)
Summary of the method: (§1)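 Ten-point 1:1 compound dilutions in NADPH-regenerating cofactor mix, pre-incubated 10 min at 37 °C before enzyme/substrate addition: CYP1A2 0.5 pmol with 5 μM CEC, 15 min, 409 ex/460 em; CYP2D6 1.5 pmol with 1.5 μM AMMC, 30 min, 409 ex/530 em. IC50 from fluorescent product vs concentration.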

c-Raf-1 = c-Raf-1 (Homo sapiens, UniProt P04049); experiment: c-Raf-1 kinase activity biochemical assay (AlphaScreen, biotin-MEK1 phosphorylation)
Summary of the method: (§2)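 Biotin-MEK1 phosphorylation measured after 45 min kinase reaction at RT with 100 μM ATP final; compounds tested at 8 points from 0.1 mM DMSO stock.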

CYP2D6 = CYP2D6 (Homo sapiens (Human), UniProt P10635); experiment: CYP enzyme inhibition, fluorescent substrate (AMMC); assay type: in vitro ADME; conditions: read-out: Cyp IC50 2D6
Summary of the method: as §1

CYP3A4(BQ) = CYP3A4(BQ) (Homo sapiens (Human), UniProt P08684); experiment: CYP enzyme inhibition, fluorescent substrate BQ
Summary of the method: (§3)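 IC50 values come from plotting product fluorescence against compound concentration; inhibition lowers formation of the fluorescent metabolite. Ten-point twofold dilutions in co-factor mix were held 10 minutes at 37 °C before the enzyme reaction, also run at 37 °C.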

[1] = Relative solubility by turbidity threshold concentration in aqueous buffers (pH 1.5, 4.5, 6.8, 7.4); assay type: physicochemical; conditions: for turbidity threshold (L, M, H) 1.4: pH 1.4 [sic] (method: SGF pH 1.5); for turbidity threshold (L, M, H) 4.5: pH 4.5 (SIF); for turbidity threshold (L, M, H) 6.8: pH 6.8 (SIF); for turbidity threshold (L, M, H) 7.4: pH 7.4 (HEPES)
Summary of the method: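 Solubility class (high >250 μM, moderate 31.3–250 μM, low <31.3 μM) comes from the concentration where absorbance reaches a 0.01 threshold, averaged across 490/535/650 nm. Samples were compound dilutions from DMSO stock, 1 μL into 99 μL buffer at pH 1.5, 4.5, 6.8 or 7.4.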

B-Raf V600E = B-Raf V600E (Homo sapiens (Human), UniProt P15056, V600E); experiment: B-Raf V600E kinase activity biochemical assay (AlphaScreen, biotin-MEK1 phosphorylation); conditions: for IC50: B-Raf V600E; for Biochemical activity ratio V600E/C: ratio of IC50 B-Raf V600E / c-Raf-1
Summary of the method: as §2

CYP2C19 = CYP2C19 (Homo sapiens (Human), UniProt P33261); experiment: CYP enzyme inhibition, fluorescent substrate (CEC)
Summary of the method: as §3

CYP2C9 = CYP2C9 (Homo sapiens (Human), UniProt P11712); experiment: CYP enzyme inhibition, fluorescent substrate (MFC)
Summary of the method: as §3

B-Raf [2] = experiment: B-Raf kinase activity biochemical assay (AlphaScreen, biotin-MEK1 phosphorylation); conditions: for Biochemical activity ratio B/V600E: ratio of IC50 B-Raf / B-Raf V600E; for Biochemical activity ratio B/C: ratio of IC50 B-Raf / c-Raf-1
Summary of the method: as §2

B-Raf [3] = biological target: B-Raf (Homo sapiens (Human), UniProt P15056); experiment: as above; conditions: B-Raf
Summary of the method: as §2

CYP3A4(BFC) = CYP3A4(BFC) (Homo sapiens (Human), UniProt P08684); experiment: CYP enzyme inhibition, fluorescent substrate BFC
Summary of the method: as §3

Chain of CYP3A4(BQ) (P08684 whole entry): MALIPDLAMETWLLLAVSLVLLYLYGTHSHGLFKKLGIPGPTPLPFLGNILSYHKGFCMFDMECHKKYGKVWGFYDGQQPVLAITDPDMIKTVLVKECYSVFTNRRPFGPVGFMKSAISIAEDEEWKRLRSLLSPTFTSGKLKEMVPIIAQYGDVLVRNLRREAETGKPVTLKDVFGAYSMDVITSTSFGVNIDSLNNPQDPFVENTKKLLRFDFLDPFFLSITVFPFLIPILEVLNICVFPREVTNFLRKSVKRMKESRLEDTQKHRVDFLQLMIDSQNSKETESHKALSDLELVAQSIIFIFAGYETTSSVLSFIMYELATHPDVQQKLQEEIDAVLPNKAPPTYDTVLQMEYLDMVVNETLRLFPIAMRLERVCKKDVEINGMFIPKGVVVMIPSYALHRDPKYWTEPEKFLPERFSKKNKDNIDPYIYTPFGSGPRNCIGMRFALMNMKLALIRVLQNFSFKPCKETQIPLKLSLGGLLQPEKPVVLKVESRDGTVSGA
Chain of CYP3A4(BFC) (P08684 whole entry): as above
Chain of B-Raf (Homo sapiens (Human), UniProt P15056) (P15056 whole entry): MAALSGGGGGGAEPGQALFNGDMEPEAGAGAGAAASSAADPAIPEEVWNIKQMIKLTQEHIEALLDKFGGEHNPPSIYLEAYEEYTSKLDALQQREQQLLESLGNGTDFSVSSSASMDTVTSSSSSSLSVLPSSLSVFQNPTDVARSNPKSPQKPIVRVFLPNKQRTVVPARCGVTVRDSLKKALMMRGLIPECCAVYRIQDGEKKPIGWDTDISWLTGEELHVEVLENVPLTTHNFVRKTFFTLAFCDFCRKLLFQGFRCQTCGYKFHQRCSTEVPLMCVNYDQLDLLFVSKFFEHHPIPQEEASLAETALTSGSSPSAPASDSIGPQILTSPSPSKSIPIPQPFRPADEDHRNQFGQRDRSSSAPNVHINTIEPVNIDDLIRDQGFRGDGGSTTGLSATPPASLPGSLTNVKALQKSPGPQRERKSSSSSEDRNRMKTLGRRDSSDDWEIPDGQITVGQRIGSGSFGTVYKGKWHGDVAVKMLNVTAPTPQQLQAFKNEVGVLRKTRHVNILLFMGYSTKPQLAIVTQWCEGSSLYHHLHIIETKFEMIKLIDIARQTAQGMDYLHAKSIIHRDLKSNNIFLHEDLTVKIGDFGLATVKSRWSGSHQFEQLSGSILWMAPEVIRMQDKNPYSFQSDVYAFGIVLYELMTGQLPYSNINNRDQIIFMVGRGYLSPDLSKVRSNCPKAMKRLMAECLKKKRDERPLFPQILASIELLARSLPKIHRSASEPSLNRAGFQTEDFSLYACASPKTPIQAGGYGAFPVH
Chain of CYP2C19 (P33261 whole entry): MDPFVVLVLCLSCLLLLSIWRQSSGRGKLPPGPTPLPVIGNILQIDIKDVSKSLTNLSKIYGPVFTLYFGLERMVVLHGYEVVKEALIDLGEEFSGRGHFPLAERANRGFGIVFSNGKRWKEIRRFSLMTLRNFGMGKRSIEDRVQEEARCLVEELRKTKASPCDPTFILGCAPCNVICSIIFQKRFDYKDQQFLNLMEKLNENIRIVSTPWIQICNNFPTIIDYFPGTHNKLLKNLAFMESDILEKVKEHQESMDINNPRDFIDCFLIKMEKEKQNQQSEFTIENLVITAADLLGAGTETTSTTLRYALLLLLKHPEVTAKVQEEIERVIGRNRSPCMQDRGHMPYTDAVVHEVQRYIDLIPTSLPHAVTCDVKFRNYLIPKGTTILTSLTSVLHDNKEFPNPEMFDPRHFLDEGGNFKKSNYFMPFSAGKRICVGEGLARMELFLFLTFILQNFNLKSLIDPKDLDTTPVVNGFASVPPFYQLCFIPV
Chain of B-Raf V600E (P15056 whole entry V600E): as the sequence (P15056 whole entry) above, with V600E counted along it
Chain of CYP2D6 (P10635 whole entry): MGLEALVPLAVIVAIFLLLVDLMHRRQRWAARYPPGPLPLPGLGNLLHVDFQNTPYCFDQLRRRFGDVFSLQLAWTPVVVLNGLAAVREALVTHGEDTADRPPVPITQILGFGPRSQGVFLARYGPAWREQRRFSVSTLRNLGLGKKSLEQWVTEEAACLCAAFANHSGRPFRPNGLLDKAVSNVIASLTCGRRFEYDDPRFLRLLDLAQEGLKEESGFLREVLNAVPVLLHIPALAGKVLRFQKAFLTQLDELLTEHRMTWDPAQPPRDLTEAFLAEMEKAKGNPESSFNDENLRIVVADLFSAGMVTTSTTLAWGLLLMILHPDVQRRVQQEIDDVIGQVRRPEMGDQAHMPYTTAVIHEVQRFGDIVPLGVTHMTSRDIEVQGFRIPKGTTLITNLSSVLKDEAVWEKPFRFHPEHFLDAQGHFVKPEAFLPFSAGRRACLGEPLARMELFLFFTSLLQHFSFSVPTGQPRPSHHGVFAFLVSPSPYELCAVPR
Chain of c-Raf-1 (P04049 whole entry, looked up): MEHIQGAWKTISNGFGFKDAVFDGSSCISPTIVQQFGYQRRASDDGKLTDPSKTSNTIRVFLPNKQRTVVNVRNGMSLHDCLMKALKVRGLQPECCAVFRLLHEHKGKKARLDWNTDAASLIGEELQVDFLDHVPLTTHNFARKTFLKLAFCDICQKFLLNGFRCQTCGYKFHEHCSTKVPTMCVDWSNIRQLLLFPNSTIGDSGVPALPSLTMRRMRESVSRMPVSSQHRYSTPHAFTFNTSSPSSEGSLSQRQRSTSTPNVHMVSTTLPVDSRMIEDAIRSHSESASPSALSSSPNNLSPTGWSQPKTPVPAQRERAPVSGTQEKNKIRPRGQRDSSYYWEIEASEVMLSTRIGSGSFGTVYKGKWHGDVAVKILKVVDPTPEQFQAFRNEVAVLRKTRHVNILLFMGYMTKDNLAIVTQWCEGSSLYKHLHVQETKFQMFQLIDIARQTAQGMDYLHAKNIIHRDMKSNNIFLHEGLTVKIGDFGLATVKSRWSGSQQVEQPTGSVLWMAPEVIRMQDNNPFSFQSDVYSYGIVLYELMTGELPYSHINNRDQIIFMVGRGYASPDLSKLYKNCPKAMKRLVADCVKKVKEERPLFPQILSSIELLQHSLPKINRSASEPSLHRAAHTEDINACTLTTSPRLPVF
Chain of CYP2C9 (P11712 whole entry): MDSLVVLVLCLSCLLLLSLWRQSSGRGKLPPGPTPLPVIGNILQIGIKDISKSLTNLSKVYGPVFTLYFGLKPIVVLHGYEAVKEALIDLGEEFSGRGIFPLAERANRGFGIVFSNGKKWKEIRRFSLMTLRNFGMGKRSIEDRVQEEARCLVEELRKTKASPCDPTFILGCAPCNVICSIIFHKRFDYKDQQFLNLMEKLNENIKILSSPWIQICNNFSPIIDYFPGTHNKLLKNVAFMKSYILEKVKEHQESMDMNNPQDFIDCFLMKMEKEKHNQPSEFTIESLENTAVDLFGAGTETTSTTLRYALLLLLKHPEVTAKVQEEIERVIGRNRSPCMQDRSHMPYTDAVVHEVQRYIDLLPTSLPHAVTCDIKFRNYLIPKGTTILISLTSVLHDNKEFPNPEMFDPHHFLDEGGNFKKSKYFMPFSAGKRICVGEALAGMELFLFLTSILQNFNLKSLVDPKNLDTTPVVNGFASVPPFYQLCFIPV
Chain of CYP1A2 (P05177 whole entry): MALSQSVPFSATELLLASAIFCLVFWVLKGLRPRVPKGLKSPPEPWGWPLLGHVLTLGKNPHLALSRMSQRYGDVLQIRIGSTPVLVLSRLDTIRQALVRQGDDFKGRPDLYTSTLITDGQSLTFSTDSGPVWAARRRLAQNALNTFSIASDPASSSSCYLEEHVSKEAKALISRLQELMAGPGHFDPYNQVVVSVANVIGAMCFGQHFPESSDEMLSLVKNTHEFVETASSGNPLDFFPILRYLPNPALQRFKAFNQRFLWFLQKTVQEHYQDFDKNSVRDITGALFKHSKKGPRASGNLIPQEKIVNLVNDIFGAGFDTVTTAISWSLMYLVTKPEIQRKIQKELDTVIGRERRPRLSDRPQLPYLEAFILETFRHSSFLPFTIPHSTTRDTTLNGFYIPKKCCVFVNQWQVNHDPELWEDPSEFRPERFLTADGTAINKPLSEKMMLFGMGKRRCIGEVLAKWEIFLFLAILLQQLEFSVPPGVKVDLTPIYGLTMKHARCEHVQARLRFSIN

| Structure (SMILES) | IC50 (CYP1A2) | IC50 (c-Raf-1) | IC50 (CYP2D6) | IC50 (CYP3A4(BQ)) | IC50 (B-Raf V600E) | Biochemical activity ratio V600E/C (B-Raf V600E) | IC50 (CYP2C19) | IC50 (CYP2C9) | Biochemical activity ratio B/V600E (B-Raf [2]) | Biochemical activity ratio B/C (B-Raf [2]) | IC50 (B-Raf [3]) | IC50 (CYP3A4(BFC)) | turbidity threshold (L, M, H) 1.4 [1] | turbidity threshold (L, M, H) 4.5 [1] | turbidity threshold (L, M, H) 6.8 [1] | turbidity threshold (L, M, H) 7.4 [1] |
| --- | --- | --- | --- | --- | --- | --- | --- | --- | --- | --- | --- | --- | --- | --- | --- | --- |
| CCCS(=O)(=O)Nc1ccc(F)c(C(=O)c2c[nH]c3ncc(Cl)c(OC)c23)c1F [P-2006, Propane-1-sulfonic acid [3-(5-chloro-4-methoxy-1H-pyrrolo[2,3-b]pyridine-3-carbonyl)-2,4-difluoro-phenyl]-amide] | > 10 µM | < 0.1 µM | > 10 µM | > 10 µM | < 0.1 µM | 0.1-10 | < 5 µM | < 5 µM | 0.1-10 | >10 | < 0.1 µM | 5 to 10 µM | M (moderate solubility if the threshold concentration is 31.3 μM to 250 μM) | M (moderate solubility if the threshold concentration is 31.3 μM to 250 μM) | M (moderate solubility if the threshold concentration is 31.3 μM to 250 μM) | M (moderate solubility if the threshold concentration is 31.3 μM to 250 μM) |
| CCCS(=O)(=O)Nc1ccc(F)c(C(=O)c2c[nH]c3ncc(Cl)c(C#N)c23)c1F [P-2007, Propane-1-sulfonic acid [3-(5-chloro-4-cyano-1H-pyrrolo[2,3-b]pyridine-3-carbonyl)-2,4-difluoro-phenyl]-amide] | > 10 µM | < 0.1 µM | > 10 µM | > 10 µM | < 0.1 µM | 0.1-10 | > 10 µM | < 5 µM | 0.1-10 | 0.1-10 | < 0.1 µM | > 10 µM | M (moderate solubility if the threshold concentration is 31.3 μM to 250 μM) | M (moderate solubility if the threshold concentration is 31.3 μM to 250 μM) | M (moderate solubility if the threshold concentration is 31.3 μM to 250 μM) | M (moderate solubility if the threshold concentration is 31.3 μM to 250 μM) |
| CCCS(=O)(=O)Nc1ccc(F)c(C(=O)c2c[nH]c3ncc(Cl)c(C)c23)c1F [P-2008, Propane-1-sulfonic acid [3-(5-chloro-4-methyl-1H-pyrrolo[2,3-b]pyridine-3-carbonyl)-2,4-difluoro-phenyl]-amide] | > 10 µM | < 0.1 µM | > 10 µM | > 10 µM | < 0.1 µM | 0.1-10 | 5 to 10 µM | 5 to 10 µM | 0.1-10 | 0.1-10 | < 0.1 µM | > 10 µM | L (low solubility if the threshold concentration is <31.3 μM) | M (moderate solubility if the threshold concentration is 31.3 μM to 250 μM) | L (low solubility if the threshold concentration is <31.3 μM) | M (moderate solubility if the threshold concentration is 31.3 μM to 250 μM) |
| N#Cc1c(F)cnc2[nH]cc(C(=O)c3c(F)ccc(NS(=O)(=O)c4ccc(C(F)(F)F)cc4)c3F)c12 [P-2009, N-[3-(4-Cyano-5-fluoro-1H-pyrrolo[2,3-b]pyridine-3-carbonyl)-2,4-difluoro-phenyl]-4-trifluoromethyl-benzenesulfonamide] | > 10 µM | < 0.1 µM | > 10 µM | > 10 µM | > 0.1 µM | >10 | > 10 µM | > 10 µM | 0.1-10 | >10 | < 0.1 µM | > 10 µM | L (low solubility if the threshold concentration is <31.3 μM) | M (moderate solubility if the threshold concentration is 31.3 μM to 250 μM) | M (moderate solubility if the threshold concentration is 31.3 μM to 250 μM) | M (moderate solubility if the threshold concentration is 31.3 μM to 250 μM) |
| N#Cc1c(Cl)cnc2[nH]cc(C(=O)c3c(F)ccc(NS(=O)(=O)c4ccc(C(F)(F)F)cc4)c3F)c12 [P-2010, N-[3-(5-Chloro-4-cyano-1H-pyrrolo[2,3-b]pyridine-3-carbonyl)-2,4-difluoro-phenyl]-4-trifluoromethyl-benzenesulfonamide] | > 10 µM | < 0.1 µM | < 5 µM | > 10 µM | < 0.1 µM | >10 | > 10 µM | 5 to 10 µM | 0.1-10 | >10 | < 0.1 µM | > 10 µM | L (low solubility if the threshold concentration is <31.3 μM) | L (low solubility if the threshold concentration is <31.3 μM) | L (low solubility if the threshold concentration is <31.3 μM) | M (moderate solubility if the threshold concentration is 31.3 μM to 250 μM) |

More lines, main results first:

| IC50 (CYP1A2) | IC50 (c-Raf-1) | IC50 (CYP2D6) | IC50 (CYP3A4(BQ)) | IC50 (B-Raf V600E) | Biochemical activity ratio V600E/C (B-Raf V600E) | IC50 (CYP2C19) | IC50 (CYP2C9) | Biochemical activity ratio B/V600E (B-Raf [2]) | Biochemical activity ratio B/C (B-Raf [2]) | IC50 (B-Raf [3]) | IC50 (CYP3A4(BFC)) | Structure (SMILES) | turbidity threshold (L, M, H) 1.4 [1] | turbidity threshold (L, M, H) 4.5 [1] | turbidity threshold (L, M, H) 6.8 [1] | turbidity threshold (L, M, H) 7.4 [1] |
| --- | --- | --- | --- | --- | --- | --- | --- | --- | --- | --- | --- | --- | --- | --- | --- | --- |
| > 10 µM | < 0.1 µM | > 10 µM | 5 to 10 µM | < 0.1 µM | 0.1-10 | > 10 µM | < 5 µM | 0.1-10 | 0.1-10 | < 0.1 µM | 5 to 10 µM | CCCS(=O)(=O)Nc1ccc(F)c(C(=O)c2c[nH]c3ncc(F)c(C#N)c23)c1F [P-2003, Propane-1-sulfonic acid [3-(4-cyano-5-fluoro-1H-pyrrolo[2,3-b]pyridine-3-carbonyl)-2,4-difluoro-phenyl]-amide] | M (moderate solubility if the threshold concentration is 31.3 μM to 250 μM) | M (moderate solubility if the threshold concentration is 31.3 μM to 250 μM) | M (moderate solubility if the threshold concentration is 31.3 μM to 250 μM) | M (moderate solubility if the threshold concentration is 31.3 μM to 250 μM) |
| > 10 µM | < 0.1 µM | > 10 µM | > 10 µM | < 0.1 µM | 0.1-10 | > 10 µM | < 5 µM | 0.1-10 | >10 | < 0.1 µM | > 10 µM | CCCS(=O)(=O)Nc1ccc(F)c(C(=O)c2c[nH]c3ncc(C#N)c(Cl)c23)c1F [P-2004, Propane-1-sulfonic acid [3-(4-chloro-5-cyano-1H-pyrrolo[2,3-b]pyridine-3-carbonyl)-2,4-difluoro-phenyl]-amide] | L (low solubility if the threshold concentration is <31.3 μM) | L (low solubility if the threshold concentration is <31.3 μM) | L (low solubility if the threshold concentration is <31.3 μM) | L (low solubility if the threshold concentration is <31.3 μM) |
| > 10 µM | < 0.1 µM | > 10 µM | > 10 µM | < 0.1 µM | 0.1-10 | > 10 µM | < 5 µM | 0.1-10 | 0.1-10 | < 0.1 µM | > 10 µM | CCCS(=O)(=O)Nc1ccc(F)c(C(=O)c2c[nH]c3ncc(C#N)c(OC)c23)c1F [P-2005, Propane-1-sulfonic acid [3-(5-cyano-4-methoxy-1H-pyrrolo[2,3-b]pyridine-3-carbonyl)-2,4-difluoro-phenyl]-amide] | M (moderate solubility if the threshold concentration is 31.3 μM to 250 μM) | L (low solubility if the threshold concentration is <31.3 μM) | L (low solubility if the threshold concentration is <31.3 μM) | M (moderate solubility if the threshold concentration is 31.3 μM to 250 μM) |
